These results are taken from US4824941A, “Specific antibody to the native form of 2'5'-oligonucleotides, the method of preparation and the use as reagents in immunoassays or for binding 2'5'-oligonucleotides in biological systems” (priority 1988, dated 1989).

Some results are limits rather than exact numbers.

As a reminder, the Km is the concentration of substrate that gives half-maximal velocity.

For experiment [1], the target named is specific antibody to 2'5'-oligo(A). The experiment is described as follows: Competitive binding radio-immune assay (inhibition of binding of [32P]-labelled 2'5'A tetramer pCp probe to antibody, nitrocellulose filter). The note with it: 25 μl, 0°, 1 hr; [32P] 2'5'A tetramer pCp probe. As for the experimental part:
The titers of the antisera are determined from the reciprocal of the dilution which gives 50% retention of the radioactivity to a nitrocellulose filter. The antiserum dilution is incubated in 25 μl of 20 mM KOAc, 10 mM HEPES-KOH, pH 7.4, 1.5 mM Mg(OAc)2 containing 1 mg/ml bovine serum albumin (BSA) and 5-6000 cpm of [^32 P] terminally labelled 2'5'A tetramer pCp (Amersham International: specific activity, approximately 3000 Ci/mmole). After incubation at 0° for 1 hr, the mixtures are diluted with 3 ml of ice cold 90 mM KCl, 20 mM Tris-HCl, pH 7.6 and passed through 25 mm discs of nitrocellulose (Millipore, type HAWP, 0.45 μ) with a filtration apparatus. The filters are washed with a further 2 portions of the same buffer, and retained radioactivity counted by Cerenkov radiation in a scintillation counter.
In the simple radio-immune assay described in Example 2, the unknown is determined by dilution of the radioactivity bound from the constant amount of known radioactive probe. […] This inhibition is a measure of the affinity of the related compound for the antibody, and will also indicate to what extent such compounds might interfere with the assay, if present in the material being analysed. […] A collection of 2'5'-adenylates and related compounds were prepared as follows. The dimer, trimer, tetramer and pentamer were obtained from the DEAE-cellulose fractionation of example 1. The tetramer was partially digested with bacterial alkaline phosphatase and the products separated by high performance liquid chromatography on a Partisil SAX column (Whatman), with 10 mM potassium phosphate buffer, pH 6.8, 20% ethanol and a gradient from 10 to 500 mM KCl. Acetyl and succinyl derivatives of the tetramer were obtained by reaction with acetic and succinic anhydride, according to the method of Example 1. Other compounds were from commercial sources.

For experiment [2], the system named is 2'5'-oligo(A) synthetase. The note with it: source of value not given; read-out: Km of the enzyme; cited from earlier work.
Experiment [3] has as its system Friend mouse erythroleukemia cells (FBU). In words: 2'5'-oligo(A) levels in differentiating Friend erythroleukemia cells, clone FBU. The note with it: 2% (v/v) DMSO. The format is cell-based. As for the experimental part: This is an example for cells growing in culture, but is universally applicable to any biological material: cell cultures, organs, tissues, bodily fluids such as blood, urine, cerebrospinal fluids, milk or any other suitably available material. Cells in a petri dish are rapidly washed with buffered saline (this step is dispensed with in the case of bodily fluids), then enough ice cold 5% trichloracetic acid (TCA) to cover the layer of cells (3 ml for a 7 cm diameter petri dish) and the dish is kept on ice for 5 min. The TCA and detached cells are removed and centrifuged to remove the insoluble material, and the dish and pellet are re-extracted with a similar volume of 5% TCA and the supernatants pooled. Alternatively, in the case of a cell suspension culture, the cells are pelleted by centrifugation at room temperature, the cells resuspended in a volume of buffered saline equal to the volume of the pellet, and approximately 10 volumes of 5% TCA are added. The insoluble material is removed by centrifugation and the pellet extracted with 1/2 the previous volume of 5% TCA. The supernatants are pooled. All operations with TCA are performed between 0° C. and 5° C. The pooled supernatants are freed of TCA by extraction with an equal volume of 30% (v/v) tri-N-octylamine in Freon 113 (Dow Chemicals). The upper aqueous phase is collected and the Freon phase re-extracted with 1/2 the preceeding volume of distilled water. Since biological material may contain ATP in the mM range, and it is desirable to measure 2'5'-oligo(A) in the nM range, it may be desirable to remove such 10^6 -fold excess of ATP, which might interfere with the assay. […]
Friend mouse erythroleukemia cells can be induced to differentiate and become erythropoietic under the influence of a variety of reagents, especially dimethylsulfoxide. […] The 2'5'-oligo(A) content is determined from the reduction of the binding of the [^32 P] labelled probe as in example 2 and 3.

The subject of experiment [4] is Friend mouse erythroleukemia cells (N46AP). In words: 2'5'-oligo(A) levels in differentiating Friend erythroleukemia cells, clone N46AP. The class given is cell-based. The note with it: 1.4% (v/v) DMSO. How it is done: This is an example for cells growing in culture, but is universally applicable to any biological material: cell cultures, organs, tissues, bodily fluids such as blood, urine, cerebrospinal fluids, milk or any other suitably available material. Cells in a petri dish are rapidly washed with buffered saline (this step is dispensed with in the case of bodily fluids), then enough ice cold 5% trichloracetic acid (TCA) to cover the layer of cells (3 ml for a 7 cm diameter petri dish) and the dish is kept on ice for 5 min. The TCA and detached cells are removed and centrifuged to remove the insoluble material, and the dish and pellet are re-extracted with a similar volume of 5% TCA and the supernatants pooled. Alternatively, in the case of a cell suspension culture, the cells are pelleted by centrifugation at room temperature, the cells resuspended in a volume of buffered saline equal to the volume of the pellet, and approximately 10 volumes of 5% TCA are added. The insoluble material is removed by centrifugation and the pellet extracted with 1/2 the previous volume of 5% TCA. The supernatants are pooled. All operations with TCA are performed between 0° C. and 5° C. The pooled supernatants are freed of TCA by extraction with an equal volume of 30% (v/v) tri-N-octylamine in Freon 113 (Dow Chemicals). The upper aqueous phase is collected and the Freon phase re-extracted with 1/2 the preceeding volume of distilled water. Since biological material may contain ATP in the mM range, and it is desirable to measure 2'5'-oligo(A) in the nM range, it may be desirable to remove such 10^6 -fold excess of ATP, which might interfere with the assay. The ATP and other nucleotides which might interfere with the assay may then be removed chromatographically with DEAE cellulose (Whatman DE-52) equilibrated with 125 mM NH4 HCO3 (pH 7.8). The loading ratio is the same as for the preparative columns of example 1, but microcolumns of 200 μl are optimal for this analytical scale. The column is washed with 15 ml of the same buffer to remove the ATP and other unbound material. The 2'5'-oligo(A) is eluted with 2 ml of 0.5M NH4 HCO3, and the samples are lyophilized after addition of 1/10th volume of ethanol. The samples may be stored indefinitely in anhydrous form and re-dissolved with suitable volumes of solvent for the radio-immuno assay as described in example 3.
Friend mouse erythroleukemia cells can be induced to differentiate and become erythropoietic under the influence of a variety of reagents, especially dimethylsulfoxide. Such cells are also known to produce the enzyme 2'5'-oligo(A) synthetase. Before the method of the present invention, it was not possible to determine the 2'5'oligo(A) directly in these cells. The determination is described in this example. The Friend cells (clone FBU or N46AP) are grown in Dulbecco's modified Eagle's Medium containing 10% fetal calf serum, 2% (v/v) dimethylsulfoxide for FBU or 1.4% (v/v) DMSO for N46 AP and 1 mM glutamine. The cells are diluted with the same medium daily to maintain a density of 5.10^5 cells per ml. At various times, 30 ml cultures are collected and processed as described in the preceeding example. The lyophilized material is dissolved in the buffer corresponding to the reaction mixture for the assay, as in example 2, but containing 0.1 mg/ml of bovine serum albumin. The 2'5'-oligo(A) content is determined from the reduction of the binding of the [^32 P] labelled probe as in example 2 and 3.

Experiment [5] relates to 2'5'-oligo(A) synthetase. The experiment is described as follows: 2'5'-oligo(A) synthetase in 3T3 cells, conventional assay ([3H]-ATP to [3H]-2'5'-oligo(A)). Conditions: 3T3 cells treated overnight; 10 μM prostaglandin F2α or 100 u/ml interferon; none 556, background (197). The format is cell-based, Swiss mouse. The text has this:
(§1) Because of the extremely efficient reaction condition of cell-free systems, it is possible to assay low levels of 2'5'-oligo(A) synthetase. However, it is sometimes desirable to measure low levels from extremely small amounts of precious starting material. By coupling the extremely sensitive measurement of 2'5'-oligo(A) according to the methods of the present invention, with the enzymatic assay for 2'5'-oligo(A) polymerase, the enzyme can be determined with 10^5 -fold higher sensitivity than was previously possible. In the example, Swiss mouse 3T3 fibroblast cells are stimulated into a cell cycle by a variety of hormones and factors (for literature on this subject see the article "Criteria for the establishment of the biological significance of ribosomal protein phosphorylation" in Current Topics in Cellular Regulation, volume 21, 1982, pages 89-99, by J. Gordon, P. J. Nielsen, K. L. Manchester, H. Towbin, L. Jimenez de Asua and G. Thomas). […] One portion (198 μl) is analysed for conversion of the ATP to 2'5'-oligo(A) from the retention of radioactivity on an analytical DEAE cellulose column (see example 4). The other portion (2 μl) is diluted in the range 250 to 10,000-fold and the 2'5'-oligo(A) determined by the radioimmune assay (see example 3).

Experiment [6] has as its system 2'5'-oligo(A) synthetase. The experiment is described as follows: 2'5'-oligo(A) synthetase in 3T3 cells, radio-immune assay of reaction product. The class given is cell-based, Swiss mouse. The note with it: 3T3 cells treated overnight; 10 μM prostaglandin F2α or 100 u/ml interferon; none 50, background 0.
Source text: as §1

On to “5'-(phospho)3 (adenylyl 2'-5')2 adenosine [pppA(2'p5'A)2]”, for which the “amount giving 50% inhibition of the maximal binding of the [^32 P]-labelled probe” value in experiment [1] was determined as 2.5 fmol.

As for `Nc1ncnc2c1ncn2[C@@H]1O[C@H](COP(=O)(O)OP(=O)(O)O)[C@@H](O)[C@H]1O` [ADP], the “amount giving 50% inhibition of the maximal binding of the [^32 P]-labelled probe” value in experiment [1] is > 3,000,000 fmoles.

Turning to `Nc1ncnc2c1ncn2[C@@H]1O[C@H](COP(=O)(O)O)[C@@H](O)[C@H]1O` [AMP], in experiment [1], the “amount giving 50% inhibition of the maximal binding of the [^32 P]-labelled probe” value is given as > 3,000,000 fmoles.

Regarding `Nc1ncnc2c1ncn2[C@@H]1O[C@H](COP(=O)(O)OP(=O)(O)OP(=O)(O)O)[C@@H](O)[C@H]1O` [ATP], the “amount giving 50% inhibition of the maximal binding of the [^32 P]-labelled probe” value in experiment [1] was > 3,000,000 fmoles. The Km with 2'5'-oligo(A) synthetase [2] is approximately 1000 µM.

For the compound `Nc1ccn([C@@H]2O[C@H](COP(=O)(O)OP(=O)(O)OP(=O)(O)O)[C@@H](O)[C@H]2O)c(=O)n1` [CTP], the “amount giving 50% inhibition of the maximal binding of the [^32 P]-labelled probe” value in experiment [1] is > 3,000,000 fmoles.

For the compound `C[S+](C)[O-]` [DMSO, dimethylsulfoxide], the “2'5'-oligo(A)” value in experiment [3] (day 1 post-DMSO (day 0: 2.6)) is listed as 28 fmoles/10^6 cells; in experiment [3] (day 2 post-DMSO), 28 fmoles/10^6 cells; in experiment [3] (day 4 post-DMSO), 20 fmoles/10^6 cells; in experiment [4] (day 1 post-DMSO (day 0: 7.5)), 7.8 fmoles/10^6 cells; in experiment [4] (day 2 post-DMSO) it was 4.3 fmoles/10^6 cells; in experiment [4] (day 3 post-DMSO), 17.5 fmoles/10^6 cells. The “2'5'-oligo(A)” value in experiment [4] (day 5 post-DMSO) was 63 fmoles/10^6 cells; in experiment [4] (day 6 post-DMSO), 53 fmoles/10^6 cells.

With `Nc1nc2c(ncn2[C@@H]2O[C@H](COP(=O)(O)OP(=O)(O)OP(=O)(O)O)[C@@H](O)[C@H]2O)c(=O)[nH]1` [GTP], the “amount giving 50% inhibition of the maximal binding of the [^32 P]-labelled probe” value in experiment [1] is > 3,000,000 fmoles.

On to `NC(=O)C1=CN([C@@H]2O[C@H](COP(=O)(O)OP(=O)(O)OC[C@H]3O[C@@H](n4cnc5c(N)ncnc54)[C@H](O)[C@@H]3O)[C@@H](O)[C@H]2O)C=CC1` [NADH], for which the “amount giving 50% inhibition of the maximal binding of the [^32 P]-labelled probe” value in experiment [1] is listed as > 3,000,000 fmoles.

Take `O=c1ccn([C@@H]2O[C@H](COP(=O)(O)OP(=O)(O)OP(=O)(O)O)[C@@H](O)[C@H]2O)c(=O)[nH]1` [UTP]: the “amount giving 50% inhibition of the maximal binding of the [^32 P]-labelled probe” value in experiment [1] is listed as > 3,000,000 fmoles.

On to `Nc1ccn([C@@H]2O[C@H](COP(=O)(O)O)[C@@H](OP(=O)(O)O)[C@H]2O)c(=O)n1` [pCp], for which the “amount giving 50% inhibition of the maximal binding of the [^32 P]-labelled probe” value in experiment [1] is > 3,000,000 fmoles.

On to `CCCCC[C@H](O)/C=C/[C@@H]1[C@@H](C/C=C\CCCC(=O)O)[C@@H](O)C[C@H]1O` [prostaglandin F2α], for which the “[^3 H]-ATP→[^3 H]-2'5'-oligo(A)” value in the experiment with 2'5'-oligo(A) synthetase [5] came to 632 cpm/assay. For the same compound, the “Radio-immune assay for 2'5'-oligo(A)” value in the experiment with 2'5'-oligo(A) synthetase [6] amounted to 100 pmoles/assay.

For the compound pA(2'p5'A)3, the “amount giving 50% inhibition of the maximal binding of the [^32 P]-labelled probe” value in experiment [1] came out at 25 fmol.
